# Data published in patent publication US20260297083A1, “SUBSTITUTED ACETYLENE COMPOUND DERIVATIVES AND THEIR PHARMACEUTICAL USE” (AVELOS THERAPEUTICS INC., priority 2023, published 2026).
# Test system: DLD-1 BRCA2(−/−) Cell
# Assay: Cell viability assay (Resazurin) in DLD1-BRCA2 cells
# Format: cell-based
# Conditions: Homo sapiens, DLD-1, 336 h, 14 days, 1,500 cells/well, final DMSO 1%
# Experimental: DLD1-BRCA2 KG (Horizon Discovery, Cat #HD 105-007) cells and DLD1-parental cells were maintained in culture media (RPMI-1640 including 2 mM L-glutamin and 25 mM sodium bicarbonate, supplemented with 10% FBS), at 37° C. in a humidified atmosphere with 5% CO2. Cells were seeded at the final concentration of 1,500 cells/well (DLD1-BRCA2 KG) and 600 cells/well (DLD1-parental) in a 96-well plate. Four hours later, test compounds were added (the final concentration of DMSO was 1%) to the cells and media were replaced every 3-4 days for 14 days. To measure viability, cells were incubated in culture media supplemented with 0.1 mg/ml of Resazurin (Merck, Cat #R7017) for 4 hours. The fluorescence was measured at Ex/Em=560 nm/590 nm using EnSight multimode plate reader (Perkin Elmer). Data analysis and IC50 calculation was done using GraphPad Prism (Version 10.0.2).
row,SMILES,IC50 [µM]
1,"Cc1cc(C(F)(F)F)cc(N2[C@H](C(=O)N(CC#Cc3cnc(C(=O)O)cn3)c3ccc(F)c(C)c3)CCS2(=O)=O)n1 [Example 60, (S)-5-(3-(N-(4-fluoro-3-methylphenyl)-2-(6-methyl-4-(trifluoromethyl)pyridin-2-yl)-1,1-dioxidoisothiazolidine-3-carboxamido)prop-1-yn-1-yl)pyrazine-2-carboxylic acid]",> 5.1
2,"CC(=O)Nc1ccc(C#CCN(C(=O)[C@@H]2CCS(=O)(=O)N2c2cc(C(F)(F)F)cc(C)n2)c2ccc(F)c(C)c2)nn1 [Example 22, (S)-N-(3-(6-acetamidopyridazin-3-yl)prop-2-yn-1-yl)-N-(4-fluoro-3-methylphenyl)-2-(6-methyl-4-(trifluoromethyl)pyridin-2-yl)isothiazolidine-3-carboxamide 1,1-dioxide]",1.1 to 5
3,"Cc1ccc(F)c(N(CC#Cc2cnc(NC(C)C)cn2)C(=O)[C@@H]2CCS(=O)(=O)N2c2cc(C(F)(F)F)cc(C)n2)c1 [Example 37, (S)-N-(2-fluoro-5-methylphenyl)-N-(3-(5-(isopropylamino)pyrazin-2-yl)prop-2-yn-1-yl)-2-(6-methyl-4-(trifluoromethyl)pyridin-2-yl)isothiazolidine-3-carboxamide 1,1-dioxide]",1.1 to 5
4,"Cc1cc(C(F)(F)F)cc(N2[C@H](C(=O)N(CC#Cc3ncnc(N4CCOCC4)n3)c3ccc(F)c(C)c3)CCS2(=O)=O)n1 [Example 103, (S)-N-(4-fluoro-3-methylphenyl)-2-(6-methyl-4-(trifluoromethyl)pyridin-2-yl)-N-(3-(4-morpholino-1,3,5-triazin-2-yl)prop-2-yn-1-yl)isothiazolidine-3-carboxamide 1,1-dioxide]",< 1
5,"Cc1cc(C(F)(F)F)cc(N2[C@H](C(=O)N(CC#Cc3cnc(C(N)=O)cn3)c3ccc(F)c(C)c3)CCS2(=O)=O)n1 [Example 61, (S)-N-(3-(5-carbamoylpyrazin-2-yl)prop-2-yn-1-yl)-N-(4-fluoro-3-methylphenyl)-2-(6-methyl-4-(trifluoromethyl)pyridin-2-yl)isothiazolidine-3-carboxamide 1,1-dioxide]",> 5.1
6,"Cc1cc(C(F)(F)F)cc(N2[C@H](C(=O)N(CC#Cc3cnc(NC(N)=O)cn3)c3ccc(F)c(C)c3)CCS2(=O)=O)n1 [Example 35, (S)-N-(4-fluoro-3-methylphenyl)-2-(6-methyl-4-(trifluoromethyl)pyridin-2-yl)-N-(3-(5-ureidopyrazin-2-yl)prop-2-yn-1-yl)isothiazolidine-3-carboxamide 1,1-dioxide]",1.1 to 5
7,"Cc1cccc(N(CC#Cc2ccc(N)nn2)C(=O)[C@@H]2CCC(=O)N2c2cc(C(F)(F)F)cc(C)n2)c1 [Example 1, (S)—N-(3-(6-aminopyridazin-3-yl)prop-2-yn-1-yl)-1-(6-methyl-4-(trifluoromethyl)pyridin-2-yl)-5-oxo-N-(m-tolyl)pyrrolidine-2-carboxamide]",< 1
8,"Cc1cc(C(F)(F)F)cc(N2[C@H](C(=O)N(CC#Cc3cnc(N4C[C@H](C)N[C@@H](C)C4)cn3)c3ccc(F)c(C)c3)CCS2(=O)=O)n1 [Example 52, (S)-N-(3-(5-((3S,5S)-3,5-dimethylpiperazin-1-yl)pyrazin-2-yl)prop-2-yn-1-yl)-N-(4-fluoro-3-methylphenyl)-2-(6-methyl-4-(trifluoromethyl)pyridin-2-yl)isothiazolidine-3-carboxamide 1,1-dioxide]",< 1
9,Cc1cc(C(F)(F)F)cc(N2[C@H](C(=O)N(CC#Cc3ccc(NC(C)C)nn3)c3ccc(F)c(C)c3)CCS2(=O)=O)n1 [Example 20],< 1
10,"Cc1cc(C(F)(F)F)cc(N2[C@H](C(=O)N(CC#Cc3ccc(OC(F)F)nn3)c3ccc(F)c(C)c3)CCS2(=O)=O)n1 [Example 28, (S)-N-(3-(6-(difluoromethoxy)pyridazin-3-yl)prop-2-yn-1-yl)-N-(4-fluoro-3-methylphenyl)-2-(6-methyl-4-(trifluoromethyl)pyridin-2-yl)isothiazolidine-3-carboxamide 1,1-dioxide]",< 1
11,"Cc1cc(C(F)(F)F)cc(N2[C@H](C(=O)N(CC#Cc3cnc4c(c3)CN(C)C4=O)c3ccc(F)c(C)c3)CCS2(=O)=O)n1 [Example 98, (S)-N-(4-fluoro-3-methylphenyl)-2-(6-methyl-4-(trifluoromethyl)pyridin-2-yl)-N-(3-(6-methyl-7-oxo-6,7-dihydro-5H-pyrrolo[3,4-b]pyridin-3-yl)prop-2-yn-1-yl)isothiazolidine-3-carboxamide 1,1-dioxide]",< 1
12,"Cc1cc(C(F)(F)F)cc(N2[C@H](C(=O)N(CC#Cc3cncc(C(N)=O)n3)c3ccc(F)c(C)c3)CCS2(=O)=O)n1 [Example 63, (S)-N-(3-(6-carbamoylpyrazin-2-yl)prop-2-yn-1-yl)-N-(4-fluoro-3-methylphenyl)-2-(6-methyl-4-(trifluoromethyl)pyridin-2-yl)isothiazolidine-3-carboxamide 1,1-dioxide]",< 1
13,"COc1ccc(C#CCN(C(=O)[C@@H]2CCS(=O)(=O)N2c2cc(C(F)(F)F)cc(C)n2)c2ccc(F)c(C)c2)nn1 [Example 27, (S)-N-(4-fluoro-3-methylphenyl)-N-(3-(6-methoxypyridazin-3-yl)prop-2-yn-1-yl)-2-(6-methyl-4-(trifluoromethyl)pyridin-2-yl)isothiazolidine-3-carboxamide 1,1-dioxide]",< 1
14,"Cc1cc(C(F)(F)F)cc(N2[C@H](C(=O)N(CC#Cc3ccc(C(N)=O)nc3C)c3ccc(F)c(C)c3)CCS2(=O)=O)n1 [Example 117, (S)-N-(3-(6-carbamoyl-2-methylpyridin-3-yl)prop-2-yn-1-yl)-N-(4-fluoro-3-methylphenyl)-2-(6-methyl-4-(trifluoromethyl)pyridin-2-yl)isothiazolidine-3-carboxamide 1,1-dioxide]",< 1
15,"Cc1cc(C(F)(F)F)cc(N2C(=O)CC[C@H]2C(=O)N(CC#Cc2cnc(N3CCOCC3)cn2)c2ccc(F)c(C)c2)n1 [Example 10, (S)-N-(4-fluoro-3-methylphenyl)-1-(6-methyl-4-(trifluoromethyl)pyridin-2-yl)-N-(3-(5-morpholinopyrazin-2-yl)prop-2-yn-1-yl)-5-oxopyrrolidine-2-carboxamide]",< 1
16,"Cc1cc(C(F)(F)F)cc(N2C(=O)CC[C@H]2C(=O)N(CC#Cc2ccc(N)nn2)c2ccc(F)c(C)c2)n1 [Example 5, (2S)-N-(3-(6-aminopyridazin-3-yl)prop-2-ynyl]-N-(4-fluoro-3-methyl-phenyl)-1-[6-methyl-4-(trifluoromethyl)-2-pyridyl]-5-oxo-pyrrolidine-2-carboxamide]",< 1
17,"Cc1cc(C(F)(F)F)cc(N2[C@H](C(=O)N(CC#Cc3cnc(C(N)=O)c(C)n3)c3ccc(F)c(C)c3)CCS2(=O)=O)n1 [Example 62, (S)-N-(3-(5-carbamoyl-6-methylpyrazin-2-yl)prop-2-yn-1-yl)-N-(4-fluoro-3-methylphenyl)-2-(6-methyl-4-(trifluoromethyl)pyridin-2-yl)isothiazolidine-3-carboxamide 1,1-dioxide]",< 1
18,"Cc1cc(C(F)(F)F)cc(N2[C@H](C(=O)N(CC#Cc3cnc(N4CCOCC4)nc3)c3ccc(F)c(C)c3)CCS2(=O)=O)n1 [Example 77, (S)-N-(4-fluoro-3-methylphenyl)-2-(6-methyl-4-(trifluoromethyl)pyridin-2-yl)-N-(3-(2-morpholinopyrimidin-5-yl)prop-2-yn-1-yl)isothiazolidine-3-carboxamide 1,1-dioxide]",< 1
19,"Cc1cc(C(F)(F)F)cc(N2[C@H](C(=O)N(CC#Cc3cncn3C)c3ccc(F)c(C)c3)CCS2(=O)=O)n1 [Example 102, (S)-N-(4-fluoro-3-methylphenyl)-N-(3-(1-methyl-1H-imidazol-5-yl)prop-2-yn-1-yl)-2-(6-methyl-4-(trifluoromethyl)pyridin-2-yl)isothiazolidine-3-carboxamide 1,1-dioxide]",1.1 to 5
20,"Cc1cc(C(F)(F)F)cc(N2[C@H](C(=O)N(CC#Cc3cnc(N4CC5CCC(C4)O5)cn3)c3ccc(F)c(C)c3)CCS2(=O)=O)n1 [Example 48, (3S)-N-(3-(5-(8-oxa-3-azabicyclo[3.2.1]octan-3-yl)pyrazin-2-yl)prop-2-yn-1-yl)-N-(4-fluoro-3-methylphenyl)-2-(6-methyl-4-(trifluoromethyl)pyridin-2-yl)isothiazolidine-3-carboxamide 1,1-dioxide]",< 1
21,"Cc1cc(C(F)(F)F)cc(N2[C@H](C(=O)N(CC#Cc3cc(N4CCOCC4)ncn3)c3ccc(F)c(C)c3)CCS2(=O)=O)n1 [Example 75, (S)-N-(4-fluoro-3-methylphenyl)-2-(6-methyl-4-(trifluoromethyl)pyridin-2-yl)-N-(3-(6-morpholinopyrimidin-4-yl)prop-2-yn-1-yl)isothiazolidine-3-carboxamide 1,1-dioxide]",< 1
22,"Cc1cc(C(F)(F)F)cc(N2[C@H](C(=O)N(CC#Cc3ccc(N4CCOCC4)cn3)c3ccc(F)c(C)c3)CCS2(=O)=O)n1 [Example 84, (S)-N-(4-fluoro-3-methylphenyl)-2-(6-methyl-4-(trifluoromethyl)pyridin-2-yl)-N-(3-(5-morpholinopyridin-2-yl)prop-2-yn-1-yl)isothiazolidine-3-carboxamide 1,1-dioxide]",< 1
23,"Cc1cc(C(F)(F)F)cc(N2[C@H](C(=O)N(CC#Cc3ccc(NC(C)C)nn3)c3ccc(F)c(C)c3F)CCS2(=O)=O)n1 [Example 21, (S)-N-(2,4-difluoro-3-methylphenyl)-N-(3-(6-(isopropylamino)pyridazin-3-yl)prop-2-yn-1-yl)-2-(6-methyl-4-(trifluoromethyl)pyridin-2-carboxamide 1,1-dioxideyl)isothiazolidine-3-carboxamide 1,1-dioxide]",< 1
